The values below come from US20170087205A1, “Replacement Therapy for Natriuretic Peptide Deficiencies” (priority 2014, published 2017).

Positions of bridges follow the written chain, without caps; N, C: chain ends. Non-standard residues stand in square brackets, D forms with d. Residues, ends and D or L forms follow the SMILES beside them. *: point of attachment. X1 = N=C(N)NCCC[C@H]1C(=O)N[C@@H](C(N)=O)CN1*; dNle = CCCC[C@@H](N)C(=O)O; Heptanoyl = CCCCCCC(=O)*

Series [1] addresses human NEP (hNEP) (Homo sapiens, UniProt P08473). Kind of series: Metabolism by human neutral endopeptidase (hNEP). Type of series: in vitro ADME. Particulars: two hours, 37° C., substrate concentration 50 μM. How it is done:
Pharmacol. 191:341-366 (2009)). A comparison was made between the sensitivity of the mimetic of formula IV and ANP to metabolism by human NEP (hNEP) (substrate concentration 50 μM). After two hours exposure to hNEP solution at 37° C., there was minimal degradation of the mimetic of formula IV (92% remaining; n=5). In contrast, under these conditions ANP was about 90% degraded after 60 minutes and 100% degraded after two hours (n=4). […] Results are shown in FIG. 1; results in FIG. 1 are expressed as the percent of the starting material, and are either the mean of 1-5 experiments or, where error bars are shown, are the mean±standard deviation.

The conditions of series [2]: in vivo; cited from earlier work.
In series [3] the target is T1, human NPRA (Homo sapiens, UniProt P16066).
T1 sequence (P16066 33-1061): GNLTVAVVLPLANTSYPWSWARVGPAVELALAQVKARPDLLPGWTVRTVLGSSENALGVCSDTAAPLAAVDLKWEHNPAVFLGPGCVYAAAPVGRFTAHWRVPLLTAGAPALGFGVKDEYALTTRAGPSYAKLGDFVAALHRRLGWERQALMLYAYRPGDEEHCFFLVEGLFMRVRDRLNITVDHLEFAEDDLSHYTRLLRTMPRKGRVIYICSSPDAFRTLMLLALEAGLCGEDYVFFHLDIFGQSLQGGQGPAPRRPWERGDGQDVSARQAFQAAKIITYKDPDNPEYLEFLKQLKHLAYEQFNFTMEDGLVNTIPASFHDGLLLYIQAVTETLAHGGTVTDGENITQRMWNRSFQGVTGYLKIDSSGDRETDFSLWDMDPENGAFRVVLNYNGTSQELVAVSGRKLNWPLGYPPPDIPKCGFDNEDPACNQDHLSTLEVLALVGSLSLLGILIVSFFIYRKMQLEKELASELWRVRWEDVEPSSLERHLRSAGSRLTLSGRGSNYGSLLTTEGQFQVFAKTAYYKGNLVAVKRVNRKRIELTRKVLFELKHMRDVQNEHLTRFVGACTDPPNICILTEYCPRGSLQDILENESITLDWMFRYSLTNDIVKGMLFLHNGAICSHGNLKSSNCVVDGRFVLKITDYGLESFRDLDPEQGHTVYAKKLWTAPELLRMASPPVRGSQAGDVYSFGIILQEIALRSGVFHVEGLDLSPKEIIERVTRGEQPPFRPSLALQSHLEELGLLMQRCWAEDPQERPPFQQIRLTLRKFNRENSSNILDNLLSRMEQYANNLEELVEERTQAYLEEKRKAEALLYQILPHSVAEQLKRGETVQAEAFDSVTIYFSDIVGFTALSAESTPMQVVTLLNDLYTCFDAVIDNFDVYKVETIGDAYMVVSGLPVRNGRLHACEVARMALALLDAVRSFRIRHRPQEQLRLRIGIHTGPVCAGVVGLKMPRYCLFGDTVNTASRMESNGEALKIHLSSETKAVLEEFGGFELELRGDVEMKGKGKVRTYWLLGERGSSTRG
The series is classed as cell-based. Particulars: human NPRA in HEK cells; mean ± SD.
Experimental: A cDNA clone that encodes for human natriuratic peptide receptor A (NPRA) was purchased from Bio S&T Inc. (Montreal, Quebec). The cDNA clone was inserted into the mammalian expression vector pcDNA3.1 (Invitrogen) and transfected into HEK-293 cells. Stable clones were selected by culture of cells in the presence of G418 sulfate. […] HEK-hNPRA cells were maintained in culture at 37° C. in 5% CO2 in Dulbecco's Modified Eagle's Medium (DMEM) supplemented with 10% FBS, G418 sulfate (300 μg/mL) sodium glutamate (0.29 mg/mL), penicillin (100 units/mL) and streptromycin (100 ug/mL).
Functional evaluation of natriuretic peptide mimetics was performed by measuring the accumulation of intracellular cGMP in HEK-293 cells that express recombinant hNPR-A. HEK-NPRA cells were harvested by washing and centrifugation in Cell Dissociation Buffer (Gibco, Life Technologies). Pelleted cells were resuspended in Hank's Balanced Salt Solution (HBSS) containing 10 mM Hepes (pH 7.4), 5 mM MgCl2, 200 mM L-glutamine, 1 mM 1,10-phenanthroline and BSA (0.5 mg/mL). Following centrifugation, cells were resuspended in the above buffer supplemented with 0.5 mM 3-isobutyl-1-methylxanthine (IBMX). […] Accumulation of cGMP was measured using the cGMP Flashplate RIA (Perkin-Elmer). Data analysis and EC50 values were determined by using nonlinear regression analysis with GraphPad Prism® software.

Series [4] in a line: Safety study in healthy volunteers: pharmacodynamic parameters (plasma cGMP). Type of series: in vivo, human. To be noted: mean ± SD. An excerpt: Cyclic guanosine monophosphate (cGMP) in the plasma samples was extracted using a protein precipitation method. cGMP and internal standard, cyclic adenosine monophosphate (cAMP), were separated using a HPLC technique and detected by an Applied Biosystems API-4000 liquid chromatography-tandem mass spectrometer (LC-MS/MS) with turbo-ion spray ionization (electrospray) in positive ion mode. Positive ions were detected in multiple reaction monitoring (MRM) mode with Precursor→Product ion pairs of 346.3→152.1 for cGMP, and 330.0→136.3 for cAMP.
In a safety study, the mimetic of formula IV was administered to healthy volunteers. Doses of 0.1, 0.3, 0.7 and 1.0 μg/kg of the mimetic of formula IV were administered.
Kel is the apparent terminal elimination rate constant, calculated by linear regression of the terminal linear portion of the log concentration versus the time curve. The plasma cGMP concentrations returned to baseline levels by approximately 8 hours after dosing following 0.7 μg/kg and 1.0 μg/kg of the mimetic of formula IV.

human NEP (hNEP), sequence (P08473 whole entry): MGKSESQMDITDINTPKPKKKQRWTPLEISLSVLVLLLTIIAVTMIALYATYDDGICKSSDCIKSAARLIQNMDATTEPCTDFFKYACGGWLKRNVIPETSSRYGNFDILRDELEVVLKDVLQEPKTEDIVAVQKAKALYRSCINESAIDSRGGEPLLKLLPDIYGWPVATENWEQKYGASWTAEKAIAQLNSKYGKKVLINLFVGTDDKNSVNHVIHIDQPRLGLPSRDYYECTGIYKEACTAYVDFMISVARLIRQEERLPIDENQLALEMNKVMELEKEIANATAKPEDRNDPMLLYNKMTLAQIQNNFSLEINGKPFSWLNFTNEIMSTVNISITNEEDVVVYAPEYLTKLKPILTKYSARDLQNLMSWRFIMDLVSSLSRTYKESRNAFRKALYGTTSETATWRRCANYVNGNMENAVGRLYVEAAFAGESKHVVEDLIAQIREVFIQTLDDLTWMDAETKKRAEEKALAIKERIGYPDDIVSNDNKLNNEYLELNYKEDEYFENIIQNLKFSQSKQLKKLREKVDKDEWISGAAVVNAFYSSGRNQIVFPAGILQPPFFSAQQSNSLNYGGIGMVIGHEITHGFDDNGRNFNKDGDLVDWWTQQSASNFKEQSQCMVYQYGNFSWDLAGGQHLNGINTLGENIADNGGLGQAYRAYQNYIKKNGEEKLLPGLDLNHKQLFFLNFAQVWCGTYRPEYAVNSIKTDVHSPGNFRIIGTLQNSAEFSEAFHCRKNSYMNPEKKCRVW

`CC[C@H](C)[C@@H]1NC(=O)[C@H](CCCNC(=N)N)NC(=O)[C@H](CC(=O)O)NC(=O)[C@H](CC(C)C)NC(=O)[C@H](CCCCN)NC(=O)[C@H](CC(C)C)NC(=O)CNC(=O)[C@H](Cc2ccccc2)NC(=O)[C@@H](NC(=O)CNC(=O)[C@H](CCCCN)NC(=O)[C@H](CO)NC(=O)[C@H](CC(C)C)NC(=O)CN)CSSC[C@@H](C(=O)O)NC(=O)CNC(=O)[C@H](CC(C)C)NC(=O)CNC(=O)[C@H](CO)NC(=O)[C@H](CCSC)NC(=O)[C@H](CO)NC(=O)CNC1=O` [hCNP]: the “percent remaining after exposure to hNEP” value in series [1] came to 1%. In addition, the “reported human plasma half-life” value in series [2] is given as “about 2 minutes”.

In the case of `CCCCCCC(=O)N[C@H]1CSSC[C@@H](C(=O)N[C@@H](Cc2ccc(O)cc2)C(=O)N2C[C@H](C(N)=O)NC(=O)[C@@H]2CCCNC(=N)N)NC(=O)[C@H](CO)NC(=O)[C@H]([C@@H](C)CC)NC(=O)[C@H](CCCNC(=N)N)NC(=O)[C@H](CC(=O)O)NC(=O)[C@@H](CCCC)NC(=O)[C@H](CCCNC(=N)N)NC(=O)CNC(=O)[C@@H](C)NC(=O)[C@H](Cc2ccccc2)NC(=O)[C@H](Cc2c[nH]cn2)NC1=O` [mimetic of formula IV] (Heptanoyl-CHF[dA]GR[dNle]DRISCY-X1; disulfide 1-12), in series [3], the “Function (cGMP) Emax (% of ANP response)” value is listed as 94 ± 8 % of ANP response. For the same compound, the figures for the t½ in series [4] (0.7 μg/kg) and in series [4] (1.0 μg/kg) were 3.03 ± 0.345 h and 2.98 ± 3.61 h, respectively.
